Reference: patent US9084754B2, “Highly permeating terbinafine formulation” (NUVO RESEARCH INC., priority 2009, dated 2015)
Counter-ions that a name gives are not always drawn.

Test: Solubility of terbinafine hydrochloride
Type: physicochemical
Conditions: for solubility at 24 h: thermodynamic from solid
Description: Buffer Preparation: Buffers were prepared at 50 mM concentration using ammonium acetate (pHs 4.0 and 10.0) or ammonium phosphate (pHs 6.0, 7.0, and 8.0). Solubility Sample Preparation: 100 to 800 mg terbinafine HCL was transferred to separate 4-mL vials. To each vial, 2 mL of the solvent to be investigated was added. Samples were capped and then rotated for 24 hours at room temperature. The samples were allowed to settle overnight at room temperature. Approximately 0.4 mL of the supernatant was removed and transferred to a 0.45 μm Nylon microcentrifuge filter and clarified. Samples were diluted with 50% methanol to within the calibration range. Sample Analysis: Samples were analyzed by HPLC with five-minute runs.

solubility at 24 h (50 mM ammonium acetate buffer pH 4.0, aqueous buffer, solvent pH 4.0 buffer): 4800 µg/mL
solubility at 24 h (50 mM ammonium acetate buffer pH 10.0, aqueous buffer, solvent pH 10.0 buffer): 1500 µg/mL
solubility at 24 h (50 mM ammonium phosphate buffer pH 6.0, aqueous buffer, solvent pH 6.0 buffer): 5000 µg/mL
solubility at 24 h (50 mM ammonium phosphate buffer pH 7.0, aqueous buffer, solvent pH 7.0 buffer): 20 µg/mL
solubility at 24 h (50 mM ammonium phosphate buffer pH 8.0, aqueous buffer, solvent pH 8.0 buffer): 2 µg/mL
solubility at 24 h (aqueous buffer, solvent PBS pH 5.5): 700 µg/mL
Solubility in words (aqueous solvents with pHs of 4 and 6): moderate solubility
solubility at 24 h (aqueous with cosolvent or surfactant or cyclodextrin, solvent 10% Ethanol): 7500 µg/mL
solubility at 24 h (aqueous with cosolvent or surfactant or cyclodextrin, solvent 20% Ethanol): 11000 µg/mL
solubility at 24 h (aqueous with cosolvent or surfactant or cyclodextrin, solvent 40% Ethanol): 53000 µg/mL
solubility at 24 h (aqueous with cosolvent or surfactant or cyclodextrin, solvent 50% Ethanol): 119000 µg/mL
Solubility in words (non-polar solvents such as ethyl acetate and isopropyl myristate): lower solubility
solubility at 24 h (oil or lipid, solvent Isopropyl myristate): 30 µg/mL
solubility at 24 h (organic solvent or mixture, solvent DMSO): 114000 µg/mL
solubility at 24 h (organic solvent or mixture, solvent Ethanol): 172000 µg/mL
solubility at 24 h (organic solvent or mixture, solvent Isopropanol): 26300 µg/mL
Solubility in words (pHs 7, 8, and 10): substantially lower solubility
Solubility in words (polar organic solvents such as ethanol and DMSO): high solubility
Solubility (solvent 5% Ethanol): 6700 µg/mL
Solubility (solvent Ethyl acetate): 700 µg/mL
solubility at 24 h (solvent Water, room temperature): 5900 µg/mL
SMILES: CN(C/C=C/C#CC(C)(C)C)Cc1cccc2ccccc12 [Terbinafine, terbinafine hydrochloride]
